The text below walks through data of paper PMC2099433, “The binding site for neohesperidin dihydrochalcone at the human sweet taste receptor” (BMC Structural Biology, 2007).

Where a SMILES comes first, the peptide text is derived from it.

As usually defined, the EC50 is the concentration needed to bring the measured effect to its halfway point. For orientation: Hill coefficient means a measure of the steepness of the concentration-response curve.

The target in test [1] is T1, hTAS1R2/hTAS1R3 (Homo sapiens, UniProt Q7RTX0+Q8TE23).
T1 construct: expressed in transfected cells; host or cells: HEK293T cells stably expressing G16Gust44
T1 sequence (Q8TE23 20-839): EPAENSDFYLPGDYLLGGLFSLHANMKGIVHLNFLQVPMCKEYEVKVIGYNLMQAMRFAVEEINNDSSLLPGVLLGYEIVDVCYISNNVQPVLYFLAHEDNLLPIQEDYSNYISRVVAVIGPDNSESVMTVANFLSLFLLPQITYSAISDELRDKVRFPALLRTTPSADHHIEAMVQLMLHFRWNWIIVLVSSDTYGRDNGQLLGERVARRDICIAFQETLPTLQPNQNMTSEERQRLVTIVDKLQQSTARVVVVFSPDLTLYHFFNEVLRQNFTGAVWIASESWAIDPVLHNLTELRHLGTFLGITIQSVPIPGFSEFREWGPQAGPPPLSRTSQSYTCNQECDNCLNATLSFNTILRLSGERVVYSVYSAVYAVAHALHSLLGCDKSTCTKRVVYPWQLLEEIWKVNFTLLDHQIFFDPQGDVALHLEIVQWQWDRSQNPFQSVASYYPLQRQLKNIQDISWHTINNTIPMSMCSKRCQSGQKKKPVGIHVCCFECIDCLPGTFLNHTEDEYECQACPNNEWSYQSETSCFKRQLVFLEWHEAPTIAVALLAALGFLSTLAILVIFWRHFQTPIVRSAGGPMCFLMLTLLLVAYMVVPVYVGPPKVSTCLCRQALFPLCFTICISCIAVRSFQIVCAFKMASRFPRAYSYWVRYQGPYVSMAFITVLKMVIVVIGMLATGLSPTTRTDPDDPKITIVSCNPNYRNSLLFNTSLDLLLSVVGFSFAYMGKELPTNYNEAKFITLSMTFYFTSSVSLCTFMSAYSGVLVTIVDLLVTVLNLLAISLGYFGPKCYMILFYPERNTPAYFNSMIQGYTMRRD
T1 sequence (Q7RTX0 21-852): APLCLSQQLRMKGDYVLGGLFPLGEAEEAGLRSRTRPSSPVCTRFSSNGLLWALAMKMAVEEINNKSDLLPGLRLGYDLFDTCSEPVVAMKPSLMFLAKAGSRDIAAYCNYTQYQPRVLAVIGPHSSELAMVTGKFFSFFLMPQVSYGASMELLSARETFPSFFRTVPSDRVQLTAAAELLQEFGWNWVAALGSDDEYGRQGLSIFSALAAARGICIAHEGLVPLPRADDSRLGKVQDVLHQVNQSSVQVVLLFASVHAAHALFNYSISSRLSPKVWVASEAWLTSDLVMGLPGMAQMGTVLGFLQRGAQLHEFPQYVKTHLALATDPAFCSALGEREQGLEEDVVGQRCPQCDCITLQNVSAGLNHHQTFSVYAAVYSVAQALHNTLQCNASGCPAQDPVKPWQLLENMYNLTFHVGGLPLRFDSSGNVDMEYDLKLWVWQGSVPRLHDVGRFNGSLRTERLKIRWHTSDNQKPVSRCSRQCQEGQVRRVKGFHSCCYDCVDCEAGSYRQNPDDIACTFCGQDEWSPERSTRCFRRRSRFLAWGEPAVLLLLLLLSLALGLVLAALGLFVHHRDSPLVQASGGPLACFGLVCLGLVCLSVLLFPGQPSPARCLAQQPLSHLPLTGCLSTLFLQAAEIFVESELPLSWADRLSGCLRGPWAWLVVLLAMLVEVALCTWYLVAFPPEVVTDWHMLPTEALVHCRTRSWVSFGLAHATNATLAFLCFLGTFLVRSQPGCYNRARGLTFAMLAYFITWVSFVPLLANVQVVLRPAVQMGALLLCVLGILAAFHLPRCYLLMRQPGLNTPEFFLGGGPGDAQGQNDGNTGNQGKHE
The test can be described thus: Concentration-response curves of sweeteners in the presence of different lactisole concentrations. The format is cell-based. To be noted: for increase of EC50 value by lactisole: presence vs absence of lactisole; for Hill slope: constant over tested lactisole concentrations.

In test [2] the target is T1, hTAS1R2/hTAS1R3. Briefly: Calcium response (FLIPR) of HEK293T-G16Gust44 cells, wild type receptor. The format is cell-based. The conditions noted are these: for EC50 / Emax: wt receptor; for EC50: average ± SD, at least three experiments; for Emax: read-out: maximal signal (% of wt). An excerpt:
In order to elucidate the putative binding site for NHDC, we cotransfected mixtures of plasmid DNAs for the rat and human TAS1R2 and TAS1R3 receptor subunits in HEK293T cells stably expressing the chimeric G-protein G16Gust44 and measured cellular calcium responses by fluorometry following bath application of various sweet tasting compounds. […].
The cDNAs for TAS1Rs tagged at the C-terminus with the herpes simplex virus glycoprotein D (HSV) were transiently transfected into HEK293T cells stably expressing the chimeric G-protein subunit G16Gust44 [44] using Lipofectamine 2000 (Invitrogen, Carlsbad, CA) according to the manufacturer's protocol. 3–4 hours after transfection, DMEM was replaced by low-glucose DMEM supplemented with GlutaMAX and 10% dialyzed FBS (Invitrogen, Carlsbad, CA). 24 h post transfection, cells were loaded for 1 h with the calcium sensitive dye Fluo4-AM (2 μg/ml in DMEM, Molecular Probes, Carlsbad, CA). Cells were washed 3x in solution C1 (130 mM NaCl, 5 mM KCl, 10 mM Hepes, 2 mM CaCl2, and 5 mM Glucose, pH 7,4). We monitored calcium mobilization following receptor stimulation with sweet tastants by an automated fluorometric imaging plate reader (FLIPR, Molecular Devices, Sunnyvale, CA). Compounds used as stimuli (Sigma-Aldrich, St. Louis, MO; Merck, Whitehouse Station, NJ) were dissolved in C1 solution. All data were collected from at least three independent experiments carried out in duplicate. The obtained calcium signals were corrected for the response of mock transfected cells and normalized to the fluorescence of cells prior to the application of the stimulus using ΔF/F = (F-F0)/F0. […]

Consider `COc1ccc(CCC(=O)c2c(O)cc(O[C@@H]3O[C@H](CO)[C@@H](O)[C@H](O)[C@H]3O[C@@H]3O[C@@H](C)[C@H](O)[C@@H](O)[C@H]3O)cc2O)cc1O` [NHDC, neohesperidin dihydrochalcone], for which the EC50 was 0.2 ± 0.1 mM on hTAS1R2/hTAS1R3 [1] (0.0 μM lactisole) and 100 ± 60 µM on hTAS1R2/hTAS1R3 [2]. The Hill coefficient amounted to 0.8 at hTAS1R2/hTAS1R3 [1] (0.0 μM lactisole), 1.2 at hTAS1R2/hTAS1R3 [1] (50 μM lactisole) and 1.5 at hTAS1R2/hTAS1R3 [1] (100 μM lactisole). In addition, the “increase of EC50 value by lactisole” value on hTAS1R2/hTAS1R3 [1] is reported as “~ fourfold”. The receptor activation entry on hTAS1R2/hTAS1R3 [2] (human sweet taste receptor) is listed as “activates”. In addition, the Emax on hTAS1R2/hTAS1R3 [2] turned out to be 100%.

As to `CC1=CC(=O)NS(=O)(=O)O1` [acesulfame K], at hTAS1R2/hTAS1R3 [1] (0.0 μM lactisole), the concentration giving a half-maximal response (EC50) came to 0.12 ± 0.04 mM. The Hill slope on hTAS1R2/hTAS1R3 [1] is listed as ~ 2.

For the compound `COC(=O)[C@H](Cc1ccccc1)NC(=O)[C@@H](N)CC(=O)O` [aspartame] (HELM PEPTIDE1{D.F.[CO[*:1]]}$$$$V2.0), the EC50 at hTAS1R2/hTAS1R3 [1] (0.0 μM lactisole) came to 0.5 ± 0.1 mM. Moreover, the Hill slope on hTAS1R2/hTAS1R3 [1] is listed as ~ 2. Also, on hTAS1R2/hTAS1R3 [2], the EC50 worked out at 1300 ± 100 µM and the Emax was determined as 100%.

`O=S(=O)(O)NC1CCCCC1` [cyclamate]: the EC50 stood at 2.2 ± 0.3 mM at hTAS1R2/hTAS1R3 [1] (0.0 μM lactisole) and 1900 ± 100 µM on hTAS1R2/hTAS1R3 [2]. In addition, the Hill coefficient at hTAS1R2/hTAS1R3 [1] (50 μM lactisole) was 2.5. Moreover, the “increase of EC50 value by lactisole” value on hTAS1R2/hTAS1R3 [1] was “~ fourfold”.
